The assay concerns the target T1, soluble guanylate cyclase (α1 and β1 subunits of guanylate cyclase, expressed in Sf9 cells) (Homo sapiens, UniProt Q02108+Q02153).
T1 construct: made in house; host or cells: Sf9 insect cells (baculovirus co-infection); high-speed supernatant used unpurified
T1 sequence (Q02108 1-690): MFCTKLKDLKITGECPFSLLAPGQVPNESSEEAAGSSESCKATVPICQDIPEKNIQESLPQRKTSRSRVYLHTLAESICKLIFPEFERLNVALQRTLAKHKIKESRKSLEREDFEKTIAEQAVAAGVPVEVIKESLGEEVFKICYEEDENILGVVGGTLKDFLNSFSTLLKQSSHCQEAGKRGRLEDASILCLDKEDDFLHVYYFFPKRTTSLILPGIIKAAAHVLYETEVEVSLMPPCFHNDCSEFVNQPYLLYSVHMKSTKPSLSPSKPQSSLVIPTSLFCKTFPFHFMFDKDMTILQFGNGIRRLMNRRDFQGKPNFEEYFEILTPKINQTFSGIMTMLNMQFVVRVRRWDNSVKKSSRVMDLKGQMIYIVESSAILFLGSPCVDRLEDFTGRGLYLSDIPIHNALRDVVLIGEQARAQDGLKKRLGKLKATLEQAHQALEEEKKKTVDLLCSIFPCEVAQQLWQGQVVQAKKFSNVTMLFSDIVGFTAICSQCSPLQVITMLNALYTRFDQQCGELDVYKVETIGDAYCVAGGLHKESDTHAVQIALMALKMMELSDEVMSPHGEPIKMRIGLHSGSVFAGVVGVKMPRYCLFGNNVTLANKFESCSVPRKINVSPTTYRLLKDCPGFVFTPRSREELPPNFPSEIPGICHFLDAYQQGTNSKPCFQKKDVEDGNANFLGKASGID
T1 sequence (Q02153 1-619): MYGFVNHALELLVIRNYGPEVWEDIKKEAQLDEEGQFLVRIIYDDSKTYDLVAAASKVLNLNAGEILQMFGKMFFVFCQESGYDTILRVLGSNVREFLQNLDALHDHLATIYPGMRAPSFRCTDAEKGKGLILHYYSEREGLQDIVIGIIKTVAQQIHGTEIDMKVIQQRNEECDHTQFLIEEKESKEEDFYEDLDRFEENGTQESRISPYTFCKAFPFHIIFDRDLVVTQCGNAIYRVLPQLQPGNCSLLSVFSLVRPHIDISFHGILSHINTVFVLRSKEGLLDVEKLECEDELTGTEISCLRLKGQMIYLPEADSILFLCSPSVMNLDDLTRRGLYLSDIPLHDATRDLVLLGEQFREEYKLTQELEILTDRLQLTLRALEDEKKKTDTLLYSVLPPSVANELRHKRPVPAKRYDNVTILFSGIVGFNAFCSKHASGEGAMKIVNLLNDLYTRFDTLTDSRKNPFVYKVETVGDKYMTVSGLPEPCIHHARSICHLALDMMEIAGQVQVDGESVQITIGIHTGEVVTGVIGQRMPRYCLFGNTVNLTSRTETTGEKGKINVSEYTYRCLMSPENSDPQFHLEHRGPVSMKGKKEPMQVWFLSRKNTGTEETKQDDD
The assay can be described thus: Guanylate Cyclase Assay (formation of cyclic GMP from GTP, with and without SNP). It counts as biochemical. Particulars: compound at 100 μM without SNP; normalized with the activity of 100 μM YC-1 (without SNP) as 100%. How it is done:
Sf9 cells were cultured in Sf-90011 medium supplemented with 10% (v/v) fetal calf serum at 28° C. to give a count of 6×10^5 cells/ml. The cells were then infected with a mixture of the virus stocks for the α1 and β1 subunits of guanylate cyclase at a multiplicity of infection of 0.1 pfu/cell. The cells were harvested 72 hours after infection and were pelleted by centrifugation. The resulting cell pellets were homogenized with Polytron homogenizer in 3 volumes of 20 mM Tris-HCl (pH 7.6) containing 1 mM EDTA, 5 mM dithiothreitol, 90 mM NaCl, 10% glycerol, and protease inhibitors mix (Roche Molecular Biochemicals). The homogenate was centrifuged at 50,000×g for 60 minutes and the supernatant was aliquotted and stored at −80° C. […]
Guanylate cyclase activity was measured by the formation of cyclic GMP from GTP in a total volume of 100 μl. […] The solution was centrifuged at 3000 rpm for 15 minutes at room temperature and cyclic GMP in 20 μl of the resulting supernatant was measured according to the protocol of Amersham cyclic GMP enzymeimmunoassay system (purchased from Sigma, catalogue number RPN 226).
Compounds of the present invention were tested at 100 μM with and without 1 μM sodium nitro prusside (SNP). […] Mean basal efficacy, in Table 1, was expressed as a percentage of 100 μM YC-1 (without SNP). […]

In the case of `CC(O)CCNC(=O)/C=C/c1ccccc1Sc1ccc(Cl)cc1` (stereo not shown) [Example 38, (2E)-3-{2-[(4-chlorophenyl)thio]pheny}-N-(3-hydroxybutyl)acrylamide], the “Mean basal efficacy of compound alone at 100 μM, [%]” value was 60%.

For the origin of these results see patent US20040192680A1, “Novel amides that activate soluble guanylate cyclase” (priority 2002, published 2004).
